Experimental data as given in patent publication US20240207240A1, “Method for Improving or Treating Cognitive Dysfunction Complicating HIV-associated Cryptococcal Meningitis with Lenalidomide” (The First Affiliated Hospital Zhejiang University School of …, priority 2022, published 2024).
Several values for one entry are separate records, joined by “and”; a condition that tells them apart may be missing. Identical values can stand only once.

Tests used:
[1] = test system: intracranial inflammation (CSF WBC, protein, albumin, IgG, glucose, chlorine, pressure); experiment: CSF routine and biochemistry analysis; format: in vivo, human; settings: for Chlorine-W 24 / Protein-W 24 / WBC-W 24 / Glucose-W23 / Δ Protein / ΔChlorine / ΔGlucose / ΔWBC: CSF; for Glucose-W23: after treatment; for Δ Protein / ΔChlorine / ΔGlucose / ΔWBC / ΔICP: week 24 - week 0, median
[2] = in vivo; cited from earlier work
CSF cytokines = experiment: Detection of inflammatory cytokines in CSF (Human Cytokine/Chemokine/Growth Factor Panel A); format: in vivo
Method: Detection of inflammatory cytokines in CSF: CSF samples were collected from the participants and centrifuged immediately; and the supernatant was stored at −80° C. until testing. 32 CSF cytokines were analyzed using the Human Cytokine/Chemokine/Growth Factor Panel A (Merck Millipore, St. Louis, USA): α-2-macroglobulin (α-2-M), apolipoprotein A-I (apoA-I), Apo-E, complement C3, complement factor H (CFH), fibroblast growth factor 2 (FGF-2), granulocyte-colony stimulating factor (G-CSF), granulocyte-macrophage colony-stimulating factor (GM-CSF), interferon-γ (IFN-γ), growth-regulated oncogene (GRO), soluble CD40 ligand (sCD40L), platelet-derived growth factor-AA (PDGF-AA), interleukin (IL)-12p40, IL-12p70, IL-13, IL-1α, IL-1β, IL-2, IL-3, IL-4, IL-6, IL-8, IL-10, IL-17α, monocyte chemoattractant protein-1 (MCP-1), macrophage inflammatory protein-la (MIP-la), MIP-1β, tumor necrosis factor-a (TNF-α), IL-17α, amyloid-β (1-42) (αβ42), total Tau (tTau) and phosphorylated Tau 181 (pTau181), The abbreviations of CSF cytokines are provided in Table 3.

[3] = individual Patients 1-4 (cognitive improvement group)
[4] = individual Patients 5-7 (cognitive non-improvement group)
[5] = W 24, after 6 cycles lenalidomide, individual patients P1-P4 (cognitive improvement group)

Compound: Nc1cccc2c1CN(C1CCC(=O)NC1=O)C2=O (centres unmarked) [lenalidomide]
- change in CSF WBC after lenalidomide treatment ([1]; CI group, P=0.032): significant decline
- change in CSF albumin after lenalidomide treatment ([1]; CI group, P=0.034): significant decline
- change in CSF protein after lenalidomide treatment ([1]; CI group, P=0.034): significant decline
- change in CSF IgG levels after lenalidomide treatment ([1]; CI group, P=0.050): significant decline
- Chlorine-W 24 [1, 3]: 128 mmol/L (2×) and 131 mmol/L and 121 mmol/L
- Protein-W 24 [1, 3]: 1.081 g/L and 1.24 g/L and 0.745 g/L and 0.788 g/L
- WBC-W 24 [1, 3]: 2 ×106/L (2×) and 10 ×106/L and 0 ×106/L
- Chlorine-W 24 [1, 4]: 123 mmol/L (2×) and 127 mmol/L
- Protein-W 24 [1, 4]: 0.37 g/L and 0.908 g/L and 1.15 g/L
- WBC-W 24 [1, 4]: 1e+06 L⁻¹ and 1e+07 L⁻¹ and 7e+06 L⁻¹
- Glucose-W23 [1, 3]: 2.4 mmol/L and 2.5 mmol/L and 3.6 mmol/L and 2.6 mmol/L
- Glucose-W23 [1, 4]: 4.7 mmol/L and 2.4 mmol/L and 2.8 mmol/L
- Δ Protein ([1]; CI group): -4.4 g/L
- ΔChlorine ([1]; CI group): 2.0 mmol/L
- ΔGlucose ([1]; CI group): 0.4 mmol/L
- ΔWBC ([1]; CI group): -1.18e+08 L⁻¹
- Δ Protein ([1]; CNI group): 0.3 g/L
- ΔChlorine ([1]; CNI group): -4.0 mmol/L
- ΔGlucose ([1]; CNI group): -0.3 mmol/L
- ΔWBC ([1]; CNI group): 7e+06 L⁻¹
- ICP-W 24 [1, 3]: 120 mmH2O and 152 mmH2O and 150 mmH2O and 85 mmH2O
- ICP-W 24 [1, 4]: 200 mmH2O and 120 mmH2O and 95 mmH2O
- ΔICP ([1]; CI group): 10.0 mmH2O
- ΔICP ([1]; CNI group): −20.0 mmH2O
- side effects [2]: milder than those of thalidomide
- change in CSF G-CSF level after treatment (CSF cytokines; CI group, P<0.001): significant decline
- change in CSF GRO level after treatment (CSF cytokines; CI group, P<0.001): significant decline
- change in CSF IL-6 level after treatment (CSF cytokines; CI group, P<0.001): significant decline
- change in CSF IL-8 level after treatment (CSF cytokines; CI group, P<0.001): significant decline
- change in CSF IL-10 level after treatment (CSF cytokines; CI group, P<0.001): significant decline
- change in CSF CFH level after treatment (CSF cytokines; CI group, P=0.002): significant decline
- change in CSF TNF-α level after treatment (CSF cytokines; CI group, P=0.002): significant decline
- change in CSF α-2-M level after treatment (CSF cytokines; CI group, P=0.003): significant decline
- change in CSF tTau level after treatment (CSF cytokines; CNI group, P=0.030): increased significantly
- CSF Apo. E (CSF cytokines; [5]): 5683 pg/mL and 1764 pg/mL and 2487 pg/mL and 1873 pg/mL
- CSF CFH (CSF cytokines; [5]): 4617 pg/mL and 2381 pg/mL and 2275 pg/mL and 1603 pg/mL
- CSF Complement C3 (CSF cytokines; [5]): 10475 pg/mL and 4010 pg/mL and 818.22 pg/mL and 1909 pg/mL
- CSF FGF-2 (CSF cytokines; [5]): 16.08 pg/mL
- CSF G-CSF (CSF cytokines; [5]): 22.02 pg/mL and 3.57 pg/mL (2×) and 5.99 pg/mL
- CSF GM-CSF (CSF cytokines; [5]): 0.98 pg/mL and 1.02 pg/mL and 1.94 pg/mL and 2.81 pg/mL
- CSF GRO (CSF cytokines; [5]): 111.65 pg/mL and 63.2 pg/mL and 32 pg/mL and 149.74 pg/mL
- CSF IFN-γ (CSF cytokines; [5]): 1.31 pg/mL and 0.7 pg/mL and 0.66 pg/mL and 1.6 pg/mL
- CSF IL-1α (CSF cytokines; [5]): 1.91 pg/mL and 1.71 pg/mL and 1.65 pg/mL and 1.37 pg/mL
- CSF IL-1β (CSF cytokines; [5]): 1.15 pg/mL and 1.09 pg/mL and 0.88 pg/mL and 1.11 pg/mL
- CSF IL-2 (CSF cytokines; [5]): 0.72 pg/mL and 0.69 pg/mL and 0.64 pg/mL and 0.81 pg/mL
- CSF IL-3 (CSF cytokines; [5]): 0.41 pg/mL and 0.44 pg/mL and 0.43 pg/mL and 0.34 pg/mL
- CSF IL-4 (CSF cytokines; [5]): 1.49 pg/mL and 2.22 pg/mL and 0.82 pg/mL (2×)
- CSF IL-6 (CSF cytokines; [5]): 12.8 pg/mL and 63.58 pg/mL and 2.85 pg/mL (2×)
- CSF IL-8 (CSF cytokines; [5]): 175.42 pg/mL and 164.92 pg/mL and 64.25 pg/mL and 118.93 pg/mL
- CSF IL-10 (CSF cytokines; [5]): 4.21 pg/mL and 4.14 pg/mL and 2.45 pg/mL and 4.07 pg/mL
